# Experimental data from patent publication US11505574B2, “Modulation of P53 for the treatment of cancer” (THE REGENTS OF THE UNIVERSITY OF CALIFORNIA, priority 2016, dated 2022).
# “Also recorded” adds a separate entry of the source.
# How the values were obtained:
# p53 [1] = experiment: Western blot for p53 in MCF7 cells treated with oligonucleotides; assay type: cell-based, human; details: MCF7 cells; oligonucleotide 50 nM; 24 hours (FIG. 2)
# RKO cells = experiment: RKO cell colony formation assay (oligonucleotides); assay type: cell-based; details: 5 μM oligonucleotide for 24 hours; versus M3 control (FIG. 30)
# From the text: Another strategy is to use oligonucleotides to block the interaction between RBM38 and the 3′ untranslated region (UTR) of p53 in order to modulate p53 translation (FIG. 26). To this end, a region of the p53 3′ UTR where RBM38 interacts (FIG. 27) was identified (SEQ ID NO:15) and several oligonucleotides having complementarity to this sequence (e.g., SEQ ID NOS:16-21) were designed.
# p53 [2] = experiment: Western blot for p53 and downstream targets in RKO cells treated with peptides; assay type: cell-based, human; details: RKO cells; for p53 protein expression compared to Pep8 (Western blot) / p53 and p21 expression after low-dose doxorubicin treatment (Western blot): 375 nM peptide with 7.5 μM PEP1; for p53 protein expression compared to Pep8 (Western blot): 18 hours (FIG. 37A); for p53 expression (Western blot): 300 nM peptide with 6 μM PEP1, 24 hours (FIG. 31A); for p53 and p21 expression after low-dose doxorubicin treatment (Western blot): 6.25 ng/mL doxorubicin 18 hours (FIG. 34G); for expression of p53 and downstream targets with low-dose doxorubicin (Western blot): complexes of CPPs and peptide plus doxorubicin 6.25 ng/mL (FIG. 19A); for expression of p53 (Western blot): peptide complexed with PEP1 (FIG. 13A)
# [3] = test system: tumor cell colony formation; experiment: Tumor cell colony formation assay, cell line not stated (FIGS. 13C, 20D); assay type: cell-based; details: complexes with PEP1 (FIG. 13C)
# MCF7 cells = experiment: MCF7 cell colony formation assay (peptides); assay type: cell-based, human; details: for MCF7 cell colony formation: 375 nM peptide with 7.5 μg PEP1 (20:1) (FIG. 1B); for inhibition of colony formation by low-dose doxorubicin: MCF7 cells, 375 nM peptide with 7.5 μg PEP1 (20:1) plus 3.125 ng/mL doxorubicin (FIG. 1D); for colony formation in MCF7 cells: complexes of peptide and PEP1 (FIG. 18)
# Method: In order to test the effect of the RBM38 and eIF4E peptides on cancer cell colony formation, MCF7 cells were seeded in 6-well plates at a density of 1×10^3 cells per well. The following day, cells were treated with peptides. In order to form stable complexes with PEP1, 100 μl of serum-free DMEM was added to individual Eppendorf tubes. Control (SEQ ID NO:11), RBM38, and eIF4E peptides were added at a concentration of 375 nM and then 7.5 μg of PEP1 was added to each peptide (20:1). The complexes were incubated for 20 minutes at room temperature and then added dropwise to cells. Cell media was changed every three days until colonies were visible. The cells were fixed and then stained with crystal violet.
# In order to test the effect of a combination treatment comprising peptides of the present invention and a chemotherapeutic agent on cancer cell colony formation, MCF7 cells were seeded in 6-well plates at a density of 1×10^3 cells per well. The following day, cells were treated with peptides. In order to form stable complexes with PEP1, 100 μL of serum-free DMEM was added to individual Eppendorf tubes. Control, RBM38, eIF4E, and peptide-8 peptides were added at a concentration of 375 nM and then 7.5 μg of PEP1 was added to each peptide (20:1). The complexes were incubated for 20 minutes at room temperature and then added dropwise to cells. 20 minutes after addition of peptide complexes, 3.125 ng/mL doxorubicin was added to the cells. Cell media was changed every three days until colonies were visible. The cells were fixed and then stained with crystal violet.
# For the experiments shown in FIG. 34C, MCF7 cells were seeded on a 6-well plate at a seed density of 1×10^3 cells per well. The following day the cells were treated with 5 μM Pen-Ctrl or 5 μM Pen-Pep23. The following day, 6.25 ng/mL doxorubicin was added to the cells for 48 hours. Subsequently, the cell media was changed every 3 days until colonies were visible. The cells were fixed and stained with crystal violet.
# p53 [4] = experiment: Western blot for p53 and downstream targets in MCF7 cells treated with peptides; assay type: cell-based, human; details: for p53 expression (Western blot) / protein expression of p53 and downstream targets p21 and MDM2 (Western blot) / p53 and p21 expression after low-dose doxorubicin treatment (Western blot) / doxorubicin-mediated p53 and p21 upregulation (Western blot) / expression of p53 and downstream targets with low-dose doxorubicin (Western blot) / expression of p53 and downstream targets p21 and MDM2 (Western blot): MCF7 cells; for p53 expression (Western blot): 300 nM peptide with 6 μM PEP1, 24 hours (FIG. 31B); for protein expression of p53 and downstream targets p21 and MDM2 (Western blot): 300 nM peptide with 6 μg PEP1 (20:1 PEP1 to peptide), 18 hours (FIG. 1A); for p53 and p21 expression after low-dose doxorubicin treatment (Western blot): 375 nM peptide with 7.5 μM PEP1, 6.25 ng/mL doxorubicin 18 hours (FIG. 34H); for doxorubicin-mediated p53 and p21 upregulation (Western blot): 375 nM peptide with (20:1) plus 6.25 ng/mL doxorubicin, 18 hours (FIG. 1C); for expression of p53 and downstream targets with low-dose doxorubicin (Western blot): complexes of CPPs and peptide plus doxorubicin 6.25 ng/mL (FIG. 19B); for expression of p53 and downstream targets p21 and MDM2 (Western blot): complexes with PEP1 (FIG. 13B)
# U20S = U20S cell colony formation assay (FIG. 18); assay type: cell-based, human; details: complexes of peptide and PEP1 (FIG. 18)
# [5] = test system: MIA-PaCa-2 pancreatic cancer cells; experiment: MIA-PaCa-2 cell colony formation assay (peptides); assay type: cell-based, human; details: complexes of peptide and PEP1 (FIG. 18)
# From the text: […] […] After colonies formed they were fixed (i.e., using 7:1 MeOH:glacial acetic acid) and stained with crystal violet.
sequence,measurement,setting,value
"AAAGAAAAAAGAAAAAAAAAAAAAAAAAAGAAAAAGAA (listed as DNA, chemistry not given here) [18T-AS]",level of p53 (Western blot),p53 [1],level of p53 was increased
"AAAAAAAAAAAAAAAAAA (listed as DNA, chemistry not given here) [15A]",RKO tumor cell colony formation,RKO cells,inhibited RKO tumor cell colony formation after 24 hours more than the M3 control oligonucleotide did
same,level of p53 (Western blot),p53 [1],level of p53 was increased
"YPYAAKPA [Pep8-SK, Pep8 mutant]",p53 protein expression compared to Pep8 (Western blot),p53 [2],stronger ability to induce p53 protein expression compared to Pep8
QYPPATYDQYPYAASPATAASFVGYSYPAAVPQALSAAAP [RBM38],p53 expression (Western blot),p53 [2],able to increase p53 expression
same,p53 and p21 expression after low-dose doxorubicin treatment (Western blot),p53 [2],further increased p53 and p21 expression
same,expression of p53 and downstream targets with low-dose doxorubicin (Western blot),p53 [2],increased the expression of p53 and downstream targets
same,expression of p53 (Western blot),p53 [2],expression of p53 was increased relative to controls
same,tumor cell colony formation,[3],successful at inhibiting tumor cell colony formation
same,MCF7 cell colony formation,MCF7 cells,able to inhibit MCF7 cell colony formation; also recorded: able to suppress colony formation of MCF7 breast cancer cells; also recorded: decreased colony formation
same,inhibition of colony formation by low-dose doxorubicin,MCF7 cells,enhanced the inhibition of colony formation by low-dose doxorubicin
same,p53 expression (Western blot),p53 [4],able to increase p53 expression
same,protein expression of p53 and downstream targets p21 and MDM2 (Western blot),p53 [4],increased protein expression of p53 and the downstream targets p21 and mouse double minute 2 homolog (MDM2); also recorded: increasing p53 protein levels; also recorded: induced p53 and downstream targets p21 and MDM2
same,p53 and p21 expression after low-dose doxorubicin treatment (Western blot),p53 [4],further increased p53 and p21 expression
same,doxorubicin-mediated p53 and p21 upregulation (Western blot),p53 [4],enhanced the effect of doxorubicin-mediated p53 and p21 upregulation; also recorded: able to enhance the induction of p53 and p21
same,expression of p53 and downstream targets with low-dose doxorubicin (Western blot),p53 [4],increased the expression of p53 and downstream targets
same,expression of p53 and downstream targets p21 and MDM2 (Western blot),p53 [4],expression of p53 and downstream targets p21 and MDM2 was increased
IGYQSHADTATKSGSTTKNRFVV [eIF4E],colony formation in U20S cells,U20S,inhibited colony formation
same,p53 expression (Western blot),p53 [2],able to increase p53 expression
same,p53 and p21 expression after low-dose doxorubicin treatment (Western blot),p53 [2],further increased p53 and p21 expression
same,expression of p53 and downstream targets with low-dose doxorubicin (Western blot),p53 [2],increased the expression of p53 and downstream targets
same,expression of p53 (Western blot),p53 [2],expression of p53 was increased relative to controls
same,tumor cell colony formation,[3],successful at inhibiting tumor cell colony formation
same,MCF7 cell colony formation,MCF7 cells,able to inhibit MCF7 cell colony formation; also recorded: able to suppress colony formation of MCF7 breast cancer cells; also recorded: decreased colony formation
same,inhibition of colony formation by low-dose doxorubicin,MCF7 cells,enhanced the inhibition of colony formation by low-dose doxorubicin; also recorded: led to decreased colony formation
same,colony formation in MCF7 cells,MCF7 cells,inhibited colony formation
same,colony formation in MIA-PaCa-2 pancreatic cancer cells,[5],inhibited colony formation
same,p53 expression (Western blot),p53 [4],able to increase p53 expression
same,protein expression of p53 and downstream targets p21 and MDM2 (Western blot),p53 [4],increased protein expression of p53 and the downstream targets p21 and mouse double minute 2 homolog (MDM2); also recorded: increasing p53 protein levels; also recorded: induced p53 and downstream targets p21 and MDM2
same,p53 and p21 expression after low-dose doxorubicin treatment (Western blot),p53 [4],further increased p53 and p21 expression
same,doxorubicin-mediated p53 and p21 upregulation (Western blot),p53 [4],enhanced the effect of doxorubicin-mediated p53 and p21 upregulation; also recorded: able to enhance the induction of p53 and p21
same,expression of p53 and downstream targets with low-dose doxorubicin (Western blot),p53 [4],increased the expression of p53 and downstream targets
same,expression of p53 and downstream targets p21 and MDM2 (Western blot),p53 [4],expression of p53 and downstream targets p21 and MDM2 was increased
"AAAGAAAAAAGAAAAAAAAAAAAAAAAAA (listed as DNA, chemistry not given here) [18T-AS-29]",level of p53 (Western blot),p53 [1],level of p53 was increased
YPYAASPA [peptide-8],colony formation in U20S cells,U20S,inhibited colony formation
same,p53 protein levels (Western blot),"p53 [2]; 50 nM peptide with 1 μM PEP1, 18 hours (FIG. 32A)",could induce p53 protein levels
same,p53 and p21 expression after low-dose doxorubicin treatment (Western blot),p53 [2],further increased p53 and p21 expression
same,expression of p53 and downstream targets with low-dose doxorubicin (Western blot),p53 [2],increased the expression of p53 and downstream targets
same,inhibition of colony formation by low-dose doxorubicin,MCF7 cells,enhanced the inhibition of colony formation by low-dose doxorubicin; also recorded: led to decreased colony formation
same,colony formation in MCF7 cells,MCF7 cells,inhibited colony formation
same,colony formation in MIA-PaCa-2 pancreatic cancer cells,[5],inhibited colony formation
same,induction of p53 (Western blot),"p53 [4]; MCF7 cells 375 nM, 50 nM or 150 nM, RKO cells 150 nM (FIG. 16)",stronger induction of p53 than the longer RBM38 and eIF4E peptides; also recorded: increases p53 expression
same,p53 and p21 expression after low-dose doxorubicin treatment (Western blot),p53 [4],further increased p53 and p21 expression
same,doxorubicin-mediated p53 and p21 upregulation (Western blot),p53 [4],enhanced the effect of doxorubicin-mediated p53 and p21 upregulation; also recorded: able to enhance the induction of p53 and p21
same,expression of p53 and downstream targets with low-dose doxorubicin (Western blot),p53 [4],increased the expression of p53 and downstream targets
"AAAGAAAAAAGAAAA (listed as DNA, chemistry not given here) [18T-AS-15]",level of p53 (Western blot),p53 [1],level of p53 was increased
"YPYAARPA [Pep8-SR, Pep8 mutant]",p53 protein expression compared to Pep8 (Western blot),p53 [2],stronger ability to induce p53 protein expression compared to Pep8
"AAAGAAAAAAGAAAAAAAA (listed as DNA, chemistry not given here) [18T-AS-19]",level of p53 (Western blot),p53 [1],level of p53 was increased
AAAAAAGAAAAAAAA (chemistry not given here) [14A/G],RKO tumor cell colony formation,RKO cells,inhibited RKO tumor cell colony formation after 24 hours more than the M3 control oligonucleotide did
same,level of p53 (Western blot),p53 [1],level of p53 was increased
